{"source": "patent US20110123654A1", "about": "“SYNERGISTIC ENHANCEMENT OF CELLULAR ERGOGENIC NUTRIENT UPTAKE, LIKE CREATINE OR CARNITINE, WITH TARRAGON” (priority 2008, published 2011)", "test_system": "blood glucose levels", "test": "Glucose challenge test in rats", "assay_type": "in vivo", "conditions": "compared to control; p.o. 30 min before i.p. glucose challenge; non-fasted male Wistar rats", "description": "A common way of testing for an effect of extracts or new chemical entities on blood glucose levels is the glucose challenge test (Verspohl, E. J.: Recommended testing in diabetes research. Planta Med 68 (7): 581-90, 2002) in which rats are given the extract, control, or a known antidiabetic substance with challenge an intraperitoneal (i.p.) dose of glucose. The extracts or extract PLUS creatine are given orally 30 min. before the glucose challenge. Blood samples are taken sublingual at time points 0, 15, 30, 60, and 120 minutes for the glucose challenge. This sampling scheme ensures to monitor both effects of extracts on the blood glucose levels after glucose challenge closely enough.\nMale non-fasted Wistar rats weighing 250-300 g were purchased from Harlan (Indianapolis, Ind., U.S.A). […]\nBlood was drawn at the appropriate time points from the sublingual vein after a short halothane anesthesia and stored at 4° C. with addition of heparin. […] The supernatant plasma was taken and analyzed using an autoanalyzer (Merck, Darmstadt). […]\nBoth percent and AUC data were analyzed by one-way ANOVA and Student-Newman-Keuls Multiple Comparison Test using Graphpad 4.0 Software, San Diego, USA. The AUC (area under the curve) was calculated using the trapezoidal rule without extensions beyond the last time point measured."}
{"smiles": "CN(CC(=O)O)C(=N)N.O", "note": "[creatine monohydrate]", "values": [{"measurement": "glucose disposal", "value": "no effect"}]}
